# Experimental data reported in paper PMC7614683, “A small molecule PI3Kα activator for cardioprotection and neuroregeneration” (Nature, 2023).
# Tested on: PI3Kα-KO MEFs
# Assay: Mass spectrometry-based phosphoproteomics, PI3Kα-KO MEFs
# Assay type: cell-based, mouse
# Description: PI3Kα-WT and PI3Kα-KO MEFs, grown in 15 cm dishes, were serum-starved overnight in DMEM with 1% penicillin-streptomycin and stimulated by the addition of 0.05% DMSO, 5 μM 1938 in final 0.05% DMSO or 100 nM insulin (Sigma #I5016) for 15 min or 4 h. Cells were lysed in 500 μl urea lysis buffer [50 mM triethylammonium bicarbonate, 8 M urea, cOmplete™ EDTA-free protease inhibitor cocktail (1:50 dilution) (Roche #11873580001), 1 PhosSTOP tablet (Roche #4906845001) per 10 ml of lysis buffer, 1 mM sodium orthovanadate] and lysates sonicated until clear for ~10 min with cooling breaks on ice. Protein concentration was measured using a BCA protein assay (Pierce #23227). 300 μg of protein was reduced with 5 mM Tris(2-carboxyethyl)phosphine hydrochloride (Sigma #C4706) at 37°C for 20 min and alkylated using 10 mM 2-chloroacetamide (Sigma #22790) for 20 min at room temperature in the dark. Proteins were digested with LysC (#129-02541; FUJIFILM Wako Chemicals, Osaka, Japan) for 3.5 h at 30°C. Samples were then diluted with 50 mM triethylammonium bicarbonate (Sigma #T7408) to reduce the urea concentration to 1.5 M, followed by an overnight peptide digestion with trypsin (Promega #V5113) at 37°C. Digest reactions were quenched by the addition of 10% trifluoroacetic acid (EMD Millipore #302031-M) to a final pH of 2.0. Sample desalting was performed using 35-350 μg C18 columns (HMM S18V; The Nest Group, Inc., Southborough, MA, USA) according to the manufacturer’ specifications. TiO2 (Hichrome Titansphere TiO2, 10 μm capacity, 100 mg, GL Sciences #5020-75010) was used for phosphoenrichment. Following peptide loading onto TiO2, the beads were sequentially washed with 1 M glycolic acid (Sigma #124737)/80% acetonitrile/5% trifluoroacetic acid, followed by 80% acetonitrile/0.2% trifluoroacetic acid and 20% acetonitrile before elution with 5% ammonium hydroxide. Enriched samples were desalted using 7-70 μg C18 columns (HUM S18V; The Nest Group, Inc., Southborough, MA, USA) according to the manufacturer’s specifications. Dried phosphopeptide samples were stored at -80°C and resuspended in 10% formic acid immediately prior to analysis. nLC-MS/MS was performed on a Q-Exactive Orbitrap Plus interfaced to a NANOSPRAY FLEX ion source and coupled to an Easy-nLC 1000 (Thermo Scientific). Fifty percent of each sample was analysed as 10 μl injections. Peptides were separated on a 27 cm fused silica emitter, 75 μm diameter, packed in-house with Reprosil-Pur 200 C18-AQ, 2.4 μm resin (Dr. Maisch, Ammerbuch-Entringen, Germany) using a linear gradient from 5% to 30% acetonitrile/0.1% formic acid over 180 min, at a flow rate of 250 nl/min. Peptides were ionised by electrospray ionisation using 1.9 kV applied immediately prior to the analytical column via a microtee built into the nanospray source with the ion transfer tube heated to 320°C and the S-lens set to 60%. Precursor ions were measured in a data-dependent mode in the orbitrap analyser at a resolution of 70,000 and a target value of 3e6 ions. The ten most intense ions from each MS1 scan were isolated, fragmented in the HCD cell, and measured in the Orbitrap at a resolution of 17,500.
# Raw data were analysed with MaxQuant[72] (version 1.5.5.1) where they were searched against the mouse UniProt database (http://www.uniprot.org/, downloaded 04/12/2018) using default settings. Carbamidomethylation of cysteines was set as fixed modification, and oxidation of methionines, acetylation at protein N-termini, phosphorylation (on S, T or Y) were set as variable modifications. Enzyme specificity was set to trypsin with maximally 2 missed cleavages allowed. To ensure high confidence identifications, peptide-spectral matches, peptides, and proteins were filtered at a less than 1% false discovery rate (FDR). Label-free quantification in MaxQuant was used with a LFQ minimum ratio count of 2, Fast LFQ selected and the ‘skip normalisation’ option selected. […]
smiles,measurement,setting,value
CCN1CCN(c2ccc(Nc3cc(Nc4cccc5c4N(C(C)=O)CC5)ccn3)cc2)CC1 [Compound 1938],signalling impact (phosphoproteomics),"PI3Kα-KO MEFs, 1938 5 μM",little signalling impact
same,"log2FC, PI3Ka KO 15’ 1938 vs PI3Ka KO DMSO",phosphosite Cask_S544,-0.1046
same,"log2FC, PI3Ka KO 4 h 1938 vs PI3Ka KO DMSO",phosphosite Cask_S544,NegInf
same,"log2FC, PI3Ka KO 15’ 1938 vs PI3Ka KO DMSO",phosphosite Cask_S545,0.1395
same,"log2FC, PI3Ka KO 4 h 1938 vs PI3Ka KO DMSO",phosphosite Cask_S545,0.1333
same,"log2FC, PI3Ka KO 15’ 1938 vs PI3Ka KO DMSO",phosphosite Gm42715_S1683,Inf
same,"log2FC, PI3Ka KO 4 h 1938 vs PI3Ka KO DMSO",phosphosite Gm42715_S1683,Inf
